# Results: a melting point compilation (Tetko et al.; mined from patent text by program, amines drawn as free bases though some values may be those of a salt)
row,SMILES,melting point [°C]
1,Cc1cc(C)cc(C(=O)N2CCC(N3CCC(NC(=O)c4ccccc4N)CC3)CC2Cc2ccccc2)c1 (configuration not stated),121
2,CCOC(=O)C(=NOC1CCCCO1)c1csc(NC(c2ccccc2)(c2ccccc2)c2ccccc2)n1 (configuration not stated),184
3,Nc1sc2c(c1C(=O)c1ccc(I)c3ccccc13)CCC2,253 to 255
4,COCCN1CCN(c2c(F)cc(N3C[C@H](CNC(C)=O)OC3=O)cc2F)CC1,162 to 164
5,COC(=O)C1(CC#N)C(=O)N(Cc2ccc(Br)cc2F)C(=O)c2ccccc21 (configuration not stated),108 to 110
6,O=C(O)CCCCN1CCN2c3ccccc3Sc3ccccc3C2C1 (configuration not stated),226 to 230
7,COc1ccc(-c2ccnc(-c3cn(C)c(=O)n3-c3ccc(C(C)(C)C#N)cc3)c2)cn1,187
8,CCCCOCCCNc1ccc(-n2cc(C(F)(F)F)ccc2=O)c(Cl)c1,83 to 85
9,Nc1ncc(-c2ccc(=O)[nH]n2)c(-c2cccc(F)c2)n1,249
10,COc1ccc2c(c1)Oc1cccc([N+](=O)[O-])c1N2,197 to 199
11,CCOC(=O)C(c1ccncc1)C(c1ccccc1)c1ccc(OC)c(OC2CCCC2)c1 (configuration not stated),165 to 166
12,COc1ncccc1-c1nc2c(N[C@H]3[C@@H](C(N)=O)[C@@H]4C=C[C@H]3C4)c(Br)cnc2[nH]1,201
13,CCCn1c(=O)c2c(N3CCN(C)CC3)cc(Cl)cc2n(Cc2ccccc2)c1=O,120 to 121
14,CCOC(=O)c1c2ccc(CC(=O)NOCC(N)=O)ccc-2c(C(=O)OCC)c1N,208 to 210
15,COc1ccc([N+](=O)[O-])cc1OCCO,115
16,Cc1c(F)c(F)c(CNc2ccc(Cl)c(O)c2)c(F)c1F,52
17,Cc1ccc(C2CC(n3ccnc3)c3ccccc3N2)cc1 (configuration not stated),152 to 154
18,COc1cccc(CCNC(=O)Cc2cccs2)c1,50
19,Cn1c(=O)c2c(ncn2CN2CCCC2)n(C)c1=O,105 to 108

row,SMILES,melting point [°C]
1,COc1ccc(-c2ccc(NC(=O)OC(C)(C)C)c([N+](=O)[O-])c2)cc1,107 to 109
2,C=CCC(O)c1ccc2ccccc2c1 (configuration not stated),35 to 39
3,CNC(=O)NCCn1c(-c2ccc(CN3CCOCC3)cc2OC)csc1=Nc1ccc(F)c(C)c1,158 to 162
4,O=C1c2ccccc2C(=O)N1Cc1noc(-c2ncn3c2[C@@H]2CCCN2C(=O)c2sccc2-3)n1,248 to 250
5,CCCCNc1c(C(=O)OCC)cnc2c1c(C)nc1cc(C)nn12,114 to 116
6,CN(C)C1(c2ccccc2)CCC(CNC(=O)N2CCCC(c3c[nH]c4ccc(F)cc34)C2)CC1 (configuration not stated),98 to 101
7,COc1cc(N)c([N+](=O)[O-])cc1O,171
8,CCCN(CCC)C(=O)Cn1c(-c2ccc(C)s2)nc2cccnc21,125 to 127
9,COc1cc(Cl)cc(C)c1Nc1nc2c(Cl)ccc(C(O)(C(C)C)C(C)C)c2n1C,218 to 219
10,CCOC(=O)c1c(CCCn2ccnc2)nc2cc(OC)c(OC)cc2c1-c1ccc(OC)c(OC)c1,164 to 165
11,CN1CC=C(c2c[nH]c3ccc(-c4cnc5[nH]cc(C(=O)C(C)(C)C)c5n4)cc23)CC1,263 to 265
12,O=C(NCc1ccc(F)cc1-n1cncn1)c1nc2n(c(=O)c1OCc1ccccc1)CCN2c1ccccc1,187 to 190
13,CCCNCc1cnc2c(C)c(NC(=O)c3ccc(OC[C@@H]4CCCO4)cc3)ccc2c1,121 to 122
14,Cc1ccc2cccc(OCc3c(Cl)ccc([N+](=O)[O-])c3C#N)c2n1,212 to 215
15,CC1(C)CCC2(CC1S(=O)(=O)c1ccccc1)OCCO2 (configuration not stated),113 to 115
16,Cc1cc2c(c(C)c1S(=O)(=O)C[N+](=O)[O-])CCCC(C)(C)O2,100 to 101
17,CN1CCCc2cc(OC(=O)Nc3ccc(Br)cc3)ccc21,155
18,Clc1ccc2c(Cl)nc(-c3ccc(Br)cc3)nc2c1,189 to 190
